Data taken from the supplement of paper PMC13380429.

How the values were obtained:
[1] = system: Caco-2; experiment: relative viability EC50 (midpoint between 100% and the lowest measured viability); higher = less toxic; details: 72 h
[2] = system: Calu-3; experiment: as above; details: 72 h
[3] = system: HepG2; experiment: as above; details: 72 h
[4] = system: Vero E6; experiment: as above; details: 72 h
[5] = system: A549-ACE2; experiment: drug-induced phospholipidosis relative to tamoxifen; higher = more phospholipidosis
[6] = system: A549-ACE2 infected with SARS-CoV-2; experiment: SARS-CoV-2 infection rate relative to DMSO; higher = more infection; details: 24 h
[7] = system: U2OS; experiment: cell viability relative to DMSO; higher = less toxic; details: 72 h
[8] = system: Caco-2; experiment: as above; details: 72 h
[9] = system: Calu-3; experiment: as above; details: 72 h
[10] = system: HepG2; experiment: as above; details: 72 h
[11] = system: Vero E6; experiment: as above; details: 72 h
[12] = system: A549-ACE2 infected with SARS-CoV-2; experiment: cell count relative to DMSO; higher = less toxic; details: 24 h
[13] = system: A549-ACE2 infected with SARS-CoV-2; experiment: morphology score (similarity to uninfected cells); higher = more like uninfected cells; details: 24 h
[14] = system: A549-ACE2; experiment: phospholipidosis EC50; higher = less potent phospholipidosis inducer
[15] = system: U2OS; experiment: drug sensitivity score (DSS) for viability; higher = more toxic; extreme values may be limits of the assay; details: 72 h
[16] = system: Caco-2; experiment: as above; details: 72 h
[17] = system: Calu-3; experiment: as above; details: 72 h
[18] = system: HepG2; experiment: as above; details: 72 h
[19] = system: Vero E6; experiment: as above; details: 72 h
[20] = system: U2OS; experiment: relative viability EC50 (midpoint between 100% and the lowest measured viability); higher = less toxic; details: 72 h

CN(C)C[C@H](O)Cn1c2ccc(Br)cc2c2cc(Br)ccc21 (racemic) [wiskostatin]
Details	drug sensitivity score	relative viability EC50 [µM]
[1]	–	2.85
[2]	–	3.47
[3]	–	3.62
[4]	–	3.2
[15]	1.4	–
[16]	3.9	–
[17]	4	–
[18]	3.5	–
[19]	2.7	–

drug-induced phospholipidosis [%], [5]
Details	0.3 µM	0.833333 µM	3.33333 µM	6.66667 µM	10 µM
24 h	5.24	11.9	79.4	108	120
48 h	4.43	7.26	89.6	176	184
72 h	2.67	8.55	92.3	196	231

Details	SARS-CoV-2 infection rate [%]	cell count [%]	cell viability [%]	morphology score	phospholipidosis EC50 [µM]
[6], 0.1 µM	107	–	–	–	–
[6], 0.3 µM	98	–	–	–	–
[6], 1 µM	87	–	–	–	–
[6], 3 µM	46	–	–	–	–
[7], 1 nM	–	–	103	–	–
[7], 10 nM	–	–	98.8	–	–
[7], 100 nM	–	–	104	–	–
[7], 1000 nM	–	–	99.4	–	–
[7], 10000 nM	–	–	70.1	–	–
[8], 1 nM	–	–	103	–	–
[8], 10 nM	–	–	105	–	–
[8], 100 nM	–	–	100	–	–
[8], 1000 nM	–	–	97.2	–	–
[8], 10000 nM	–	–	35	–	–
[9], 1 nM	–	–	110	–	–
[9], 10 nM	–	–	95.4	–	–
[9], 100 nM	–	–	123	–	–
[9], 1000 nM	–	–	104	–	–
[9], 10000 nM	–	–	20.7	–	–
[10], 1 nM	–	–	108	–	–
[10], 10 nM	–	–	105	–	–
[10], 100 nM	–	–	107	–	–
[10], 1000 nM	–	–	107	–	–
[10], 10000 nM	–	–	27.2	–	–
[11], 1 nM	–	–	110	–	–
[11], 10 nM	–	–	110	–	–
[11], 100 nM	–	–	106	–	–
[11], 1000 nM	–	–	100	–	–
[11], 10000 nM	–	–	48.2	–	–
[12], 0.1 µM	–	102	–	–	–
[12], 0.3 µM	–	100	–	–	–
[12], 1 µM	–	104	–	–	–
[12], 3 µM	–	119	–	–	–
[13], 0.1 µM	–	–	–	0.02	–
[13], 0.3 µM	–	–	–	0.05	–
[13], 1 µM	–	–	–	0.24	–
[13], 3 µM	–	–	–	0.74	–
[14], 24 h	–	–	–	–	2.73
[14], 48 h	–	–	–	–	3.44
[14], 72 h	–	–	–	–	4.3

COc1cc(C[C@H]2c3cc(OC)c(OC)cc3CCN2C)c(Oc2cc3c(cc2OC)-c2c(OC)c(OC)cc4c2[C@H](C3)N(C)CC4)cc1OC [thaliblastine]
Details	drug sensitivity score	relative viability EC50 [µM]
[1]	–	> 10
[2]	–	2.18
[4]	–	> 10
[15]	0.8	–
[16]	0.1	–
[17]	6.2	–
[18]	1.5	–
[19]	0	–
[20]	–	> 10

drug-induced phospholipidosis [%], [5]
Details	0.3 µM	0.833333 µM	3.33333 µM	6.66667 µM	10 µM	30 µM
24 h	9.75	20.6	72.4	86.2	80.5	65.6
48 h	11.1	12.9	77.4	95.4	104	120
72 h	10.4	12.7	67.9	103	105	154

Details	SARS-CoV-2 infection rate [%]	cell count [%]	cell viability [%]	morphology score	phospholipidosis EC50 [µM]
[6], 0.3 µM	95	–	–	–	–
[6], 3 µM	28	–	–	–	–
[6], 10 µM	21	–	–	–	–
[6], 30 µM	34	–	–	–	–
[7], 1 nM	–	–	94.4	–	–
[7], 10 nM	–	–	93.9	–	–
[7], 100 nM	–	–	100	–	–
[7], 1000 nM	–	–	96.6	–	–
[7], 10000 nM	–	–	83	–	–
[8], 1 nM	–	–	88.3	–	–
[8], 10 nM	–	–	93.6	–	–
[8], 100 nM	–	–	104	–	–
[8], 1000 nM	–	–	102	–	–
[8], 10000 nM	–	–	86	–	–
[9], 1 nM	–	–	102	–	–
[9], 10 nM	–	–	109	–	–
[9], 100 nM	–	–	97.1	–	–
[9], 1000 nM	–	–	90.2	–	–
[9], 10000 nM	–	–	18.2	–	–
[10], 1 nM	–	–	92.4	–	–
[10], 10 nM	–	–	111	–	–
[10], 100 nM	–	–	96.3	–	–
[10], 1000 nM	–	–	105	–	–
[10], 10000 nM	–	–	62	–	–
[11], 1 nM	–	–	90.6	–	–
[11], 10 nM	–	–	100	–	–
[11], 100 nM	–	–	89.8	–	–
[11], 1000 nM	–	–	102	–	–
[11], 10000 nM	–	–	96.6	–	–
[12], 0.3 µM	–	109	–	–	–
[12], 3 µM	–	120	–	–	–
[12], 10 µM	–	122	–	–	–
[12], 30 µM	–	115	–	–	–
[13], 0.3 µM	–	–	–	0.32	–
[13], 3 µM	–	–	–	0.61	–
[13], 10 µM	–	–	–	0.29	–
[13], 30 µM	–	–	–	-0.02	–
[14], 24 h	–	–	–	–	1.3
[14], 48 h	–	–	–	–	2.7
[14], 72 h	–	–	–	–	6.76

CCc1cc2cc(OC)c(OC)cc2c(Cc2ccccc2)n1 [moxaverine]
Details	drug sensitivity score	relative viability EC50 [µM]
[1]	–	> 10
[2]	–	> 10
[3]	–	> 10
[4]	–	> 10
[15]	0	–
[16]	0	–
[17]	0	–
[18]	0	–
[19]	0	–
[20]	–	> 10

drug-induced phospholipidosis [%], [5]
Details	0.3 µM	0.833333 µM	3.33333 µM	6.66667 µM	10 µM	30 µM
24 h	1.12	1.68	0.22	1.38	2.55	6.92
48 h	3.81	1.7	2.59	3.75	3.82	13.6
72 h	4.52	0.631	3.05	3.57	2.15	15.7

Details	SARS-CoV-2 infection rate, [6] [%]	cell count, [12] [%]	cell viability, [7] [%]	cell viability, [8] [%]	cell viability, [9] [%]	cell viability, [10] [%]	cell viability, [11] [%]	morphology score, [13]
1 nM	–	–	101	89	95.7	101	96.5	–
10 nM	–	–	95.1	85.6	92.5	104	95.4	–
100 nM	–	–	99.6	104	95.9	98.5	92.2	–
0.3 µM	104	99	–	–	–	–	–	-0.15
1000 nM	–	–	95.5	90.9	96	103	95	–
3 µM	95	103	–	–	–	–	–	0.3
10 µM	71	106	–	–	–	–	–	0.51
10000 nM	–	–	96.8	105	100	106	107	–
30 µM	52	109	–	–	–	–	–	0.66
